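48-hour exposure; five concentrations; linearly interpolated endpoints. TGI: total growth inhibition.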
Columns and labels:
Assay in all cases: inhibition of tumour cell growth, NCI panel, 48 h
[1] = test system: A549 NSCLC
[2] = test system: OVCAR-4 ovarian
[3] = test system: SF-539 CNS
[4] = test system: HOP-62 NSCLC
[5] = test system: RPMI-8226 leukemia
[6] = test system: K-562 leukemia
[7] = test system: LOX IMVI melanoma
[8] = test system: NCI/ADR-RES ovarian
[9] = test system: NCI-H226 lung
[10] = test system: UO-31 renal
[11] = test system: PC-3 prostate
[12] = test system: A498 renal

| Structure (SMILES) | TGI [1] | TGI [2] | TGI [3] | TGI [4] | TGI [5] | TGI [6] | TGI [7] | TGI [8] | TGI [9] | TGI [10] | TGI [11] | TGI [12] |
| --- | --- | --- | --- | --- | --- | --- | --- | --- | --- | --- | --- | --- |
| CCn1c(=O)c2c(=O)[nH][nH]c2c2ccccc21 | > 100 µM | > 100 µM | > 100 µM | > 100 µM | > 100 µM | > 100 µM | > 100 µM | > 100 µM | > 100 µM | > 100 µM | > 100 µM | > 100 µM |
| Cc1c(-c2ccccc2)c(-c2ccc(OCCN(C)C)cc2)n2ccccc12 | 29 µM | 26.1 µM | 24.8 µM | 28.6 µM | 6.96 µM | 4.14 µM | 5.81 µM | 27.5 µM | 30.9 µM | 23.7 µM | 20.3 µM | 29.1 µM |
| Cc1ccc2c(c1)C(C1Cc3c(C)cccc3C1=O)OC2=O (configuration not stated) | > 100 µM | > 100 µM | > 100 µM | > 100 µM | > 100 µM | > 100 µM | > 100 µM | > 100 µM | > 100 µM | > 100 µM | > 100 µM | > 100 µM |
| CCOP(=O)(CS(C)=O)O[C@@H]1C[C@H](C)CC[C@H]1C(C)C (some centres not stated) | 17.7 µM | > 39.3 µM | 26.9 µM | 21.4 µM | 5.3 µM | > 100 µM | 3.77 µM | 26 µM | 12.2 µM | 7.15 µM | 19.7 µM | 4.87 µM |
| CCCCCCN(C(=O)Oc1ccccc1)C(C#N)c1ccccc1 (configuration not stated) | > 100 µM | > 100 µM | > 100 µM | > 100 µM | > 100 µM | > 100 µM | > 100 µM | > 100 µM | > 100 µM | > 100 µM | > 100 µM | > 100 µM |
| O=C1C(NCCc2cc(Br)c(O)c(Br)c2)=CC(=O)c2ncccc21 | 9.89 µM | 16.7 µM | 5.36 µM | 9.99 µM | 23.2 µM | 13.8 µM | 8.69 µM | 49.5 µM | 8.52 µM | 41.6 µM | > 100 µM | 9.88 µM |
| CC(=O)NNC=N/C(C#N)=C(\N)C#N | > 100 µM | > 100 µM | > 100 µM | > 100 µM | > 100 µM | > 100 µM | > 100 µM | > 100 µM | > 100 µM | > 100 µM | > 100 µM | > 100 µM |
| Cn1c(=O)nc2n(CCO)c(-c3ccccc3)c(-c3ccccc3)nc-2c1=O | > 100 µM | > 100 µM | > 100 µM | > 100 µM | > 100 µM | > 100 µM | > 100 µM | > 100 µM | > 100 µM | > 100 µM | > 100 µM | > 100 µM |
| CC(=O)Nc1c(C)cc(OCC(=O)O)cc1C | > 100 µM | > 100 µM | – | > 100 µM | > 100 µM | > 100 µM | > 100 µM | > 100 µM | > 100 µM | > 100 µM | > 100 µM | > 100 µM |
